Reference: patent US20230285516A1 (priority 2020, published 2023)
Where two headings read alike, the source gives them in different places.

How the values were obtained:
TNF-α = TNF-α in co-culture supernatants (ELISA); type: cell-based, human; settings: RA or OA co-cultures, day 7 of culture
Protocol: Cartilage and synovium co-cultures were performed from 9 patients with RA and 8 patients with OA who underwent hip or knee replacement (Table 1). Joint tissue was cultured with (a) RPMI (control), (b) 1% type I polymerized collagen, for 7 days. The supernatants and tissues of days 1 and 7 were […] collected. In the culture supernatants the concentration of IL-1β, IL-8, IL-10, IL-12, TNF-α and IFN-γ was quantified by ELISA and the results were normalized with total protein concentration. The expression of IL-1β and TNF-α was evaluated using histochemistry.
FIG. 4. Effect of type I polymerized collagen on TNF-α expression in supernatants of cartilage and synovial tissue co-cultures from patients with rheumatoid arthritis (RA) or osteoarthritis (OA). The data represent the mean±SD of 9 co-cultures of cartilage and synovium from patients with RA and of 8 co-cultures of patients with OA. Each culture was performed in triplicate for each condition. The results were normalized with the total protein concentration of the supernatant, determined by the Folin-Löwry micromethod. AR: left panel. OA: panel on the right. Basal: tissue in basal conditions. […] No detectable levels of IL-12 and IFN-γ were determined in the cultures.

SARS-CoV2 (Covid-19) [1] = tested on: SARS-CoV2 (Covid-19)
dormant cells = settings: Jou I-M 2005; Furuzawa-Carballeda 2003; cited from earlier work
NF-κB = assay: Ex vivo NF-κBp65 and IκBα expression in splenocytes, CIA models; parameters: species or system mice; settings: early and long-standing arthritis
Protocol: We infer that the mechanism of action of type I polymerized collagen could be given through the regulation of the transcription factor NF-κB and AP-1. In particular, NF-κB regulates the expression of pro-inflammatory enzymes, cytokines, chemokines, immunoreceptors, and cell adhesion molecules, as well as apoptosis. In the light of this knowledge, the expression of NF-κBp65 and its inhibitor IκBα in splenocytes were analyzed ex vivo (FIG. 12).
FIG. 12. Effect of type I polymerized collagen in the early (preventive) and long-standing (late or palliative) arthritis model on ex vivo NF-κB and IκB-α expression in splenocytes. (A) Spleen cells from early arthritis model mice at first sacrifice. (B) Splenocytes obtained immediately after the second sacrifice. (C) Spleen cells from long-standing arthritis model mice at first sacrifice. (D) Splenocytes obtained immediately after the second sacrifice. The intracellular levels of NF-κBp65 and IκBα cells were detected by flow cytometry. The results are representative of 6 mice analyzed in each group. The horizontal dotted line represents the average normal values obtained from mice (n=3) without CIA. Data represent mean±SEM. *p<0.05.

[2] = Adverse events in the mouse study; type: in vivo, mice; settings: after injection, throughout the study
Protocol: There was no evidence of adverse events after injection of placebo or the different treatments throughout the study. The only adverse event observed was pain lasting less than 15 minutes at the injection site.

[3] = tested on: dendritic (CD4−/CD11c+) cells; assay: FACS of spleen CD11c+ dendritic cells in CIA models; type: in vivo, mice; settings: CIA model
Protocol: (§1) Early Arthritis Model. Fifty mice with the same characteristics were immunized at the base of the tail with 100 μg of chicken type II collagen emulsified in complete Freund's adjuvant. The boost was applied on day 21 at the base of the tail with 100 μg of type II collagen emulsified with Freund's incomplete adjuvant. On the same boosting day, the treatments (a-d) were applied every week for six weeks. Three animals were euthanized in the sixth week and three in the thirteenth week. The spleen, lymph nodes, joint tissue, liver, lungs, kidneys and heart were obtained in order to assess the inflammatory infiltrate, the predominant cell populations and the expression of pro- and anti-inflammatory cytokines.
(§2) Established Arthritis Model. Arthritis was induced as in the previous model in 50 mice and the treatments were applied intramuscularly, after 2 weeks of the boost, every week for 6 weeks. Three animals were euthanized in the eighth week and three in the fifteenth week. The spleen, lymph nodes, joint tissue, liver, lungs, kidneys and heart were obtained in order to assess the inflammatory infiltrate, the predominant cell populations and the expression of pro- and anti-inflammatory cytokines.
Cytometric evaluation. […]
FIG. 12. […] The expression of CD11c was detected by flow cytometry. The results are representative of 6 mice analyzed in each group. […]

SARS-CoV2 (Covid-19) [4] = tested on: SARS-CoV2 (Covid-19); remark: listed apart in the source
Treg (CD4+/FOXP3+) cells = assay: FACS of spleen Foxp3+ regulatory T cells in CIA models; type: in vivo, mice
Protocol: as §1, §2
Cytometric evaluation. Using FACS, the percentage of populations of Th1 ([…]), Th2 (CD4^+/IL-4^+), Treg (CD4^+/FOXP3^+) Th17 (CD4^+/IL-17^+) and dendritic (CD4−/CD11c^+) cells in spleen cells.
FIG. 10. Effect of type I polymerized collagen in the early (preventive) and long-standing (late or palliative) arthritis model on the percentage of spleen CD4+ T cell subpopulations. (A) Spleen cells obtained ex vivo in the early arthritis model during the first sacrifice. (B) Spleen cells obtained ex vivo in the early arthritis model during the second sacrifice. (C) Spleen cells obtained ex vivo in the long-standing arthritis model during the first sacrifice. […] The intracellular production of IL-17A, IL-4, IFN-γ and Foxp3 by CD4+ T cells was detected by flow cytometry. The results are representative of 6 mice analyzed in each group. […]

[5] = end of treatment and 7-day follow-up
[6] = severe to semi-critical disease

Substance: collagen-polyvinylpyrrolidone [type I polymerized collagen]
- expression of TNF-α vs. the controls in the supernatants (TNF-α): decreased
- fever, changes in heart rate and odynophagia (SARS-CoV2 (Covid-19) [1]; after 7 days): disappearance
- patients in whom cough, myalgia, and loss of taste persisted (SARS-CoV2 (Covid-19) [1]; after 7 days): 40%
- patients persisting with alterations in respiratory rate, headache, anosmia, and arthralgia (SARS-CoV2 (Covid-19) [1]; after 7 days): 20%
- patients persisting with dyspnea (SARS-CoV2 (Covid-19) [1]; after 7 days): 60%
- patients with mild alterations in heart rate, cough and loss of the sense of taste (SARS-CoV2 (Covid-19) [1]; day 14, 7 days post-treatment): 20%
- the other symptoms (SARS-CoV2 (Covid-19) [1]; day 14, 7 days post-treatment): disappeared
- dyspnea and headache (SARS-CoV2 (Covid-19) [1]; [5]): disappeared in all patients
- oxygen requirement to maintain saturation >90% (SARS-CoV2 (Covid-19) [1]; [5]): none required oxygen
- acute respiratory failure syndrome or hospitalization (SARS-CoV2 (Covid-19) [1]; human, in vivo): None
- complications related to SARS-CoV2 infection or due to the use of collagen-PVP (SARS-CoV2 (Covid-19) [1]; human, in vivo): No complications
- death (SARS-CoV2 (Covid-19) [1]; human, in vivo): No patient died
- adverse effects (SARS-CoV2 (Covid-19) [1]; mild to moderate disease): No adverse effects were detected, except for pain at the application site
- persistence of pain at the application site (SARS-CoV2 (Covid-19) [1]; mild to moderate disease): 5 to 15 min
- clinical improvement (SARS-CoV2 (Covid-19) [1]; patients with Covid-19, intramuscular, all cases): In all cases there was a clinical improvement
- response of dormant cells (dormant cells): does not induce any response
- percentage of NF-kB+ complexes with its inhibitor IκBα+ in splenocytes (NF-κB): increased to a statistically significant level
- adverse events [2]: no adverse effects
- CD11c+ population (antigenic presentation) [3]: decrease
- fever, alterations in heart rate, respiratory rate, headache and arthralgias (SARS-CoV2 (Covid-19) [4]; after 7 days): disappearance
- adverse effects (SARS-CoV2 (Covid-19) [4]; [6]): No adverse effects were detected, except for pain at the application site
- persistence of pain at the application site (SARS-CoV2 (Covid-19) [4]; [6]): 5 to 15 min
- positive regulation of Tregs cells (Treg (CD4+/FOXP3+) cells; CIA model, fold): 5.0-6.0 ×
- Foxp3+ regulatory T cells (Treg (CD4+/FOXP3+) cells; early and long-standing arthritis, first and second sacrifice, vs placebo): increase
